Data reported in the supplement of paper PMC11061612.

Columns and labels:
[1] = compound: O=C(c1cc(Cc2n[nH]c(=O)c3ccccc23)ccc1F)N1CCN(C(=O)C2CC2)CC1 [Olaparib]; conditions: max 10 µM
Method in brief: (§1)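 After 24 hours at 37°C and 5% CO2 in 1536-well plates holding 7.5 μl of DMEM/F12 or RPMI with 10% FBS, cancer cell lines were dosed for 72 hours, with final DMSO typically 0.2%. Viability came from CellTiter-Glo 2.0 luminescence, scaled between the means of blank wells and DMSO wells. A non-linear mixed effects model fitted a two-parameter logistic curve to each dose response to give the single-agent IC50.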

[2] = compound: C1CN(CCC1(C(=O)N[C@@H](CCO)C2=CC=C(C=C2)Cl)N)C3=NC=NC4=C3C=CN4 [AZD5363]; conditions: max 10 µM
Method in brief: as §1

[3] = compound: CC1=C(C(=CC=C1)Cl)NC(=O)C2=CN=C(S2)NC3=CC(=NC(=N3)C)N4CCN(CC4)CCO [Dasatinib]; conditions: max 2 µM
Method in brief: as §1

[4] = compound: CC(C)n1c(=O)n(C)c2cnc3cc(F)c(-c4ccc(OCCCN5CCCCC5)nc4)cc3c21 [AZD1390]; conditions: max 0.3 µM
Method in brief: as §1

[5] = compound: COc1nnc2ccc(N3CCC(c4ccc(OCCN5CCN(C)C(=O)[C@H]5C)cc4)CC3)nn12 [AZD5153]; conditions: max 1 µM
Method in brief: as §1

[6] = compound: COc1cc(Nc2ncc3c(n2)-c2ccc(Cl)cc2C(c2c(F)cccc2OC)=NC3)ccc1C(=O)O [Alisertib]; conditions: max 10 µM
Method in brief: as §1

[7] = compound: NC1(c2ccc(-c3nc4ccn5c(=O)[nH]nc5c4cc3-c3ccccc3)cc2)CCC1 [MK-2206]; conditions: max 10 µM
Method in brief: as §1

[8] = compound: CN(C)CCCOc1ccc(-c2ccc3ncc4c(c3c2)n(C2CCOCC2)c(=O)n4C)cn1 [AZD0156]; conditions: max 3 µM
Method in brief: as §1

[9] = compound: N#Cc1cnc(Nc2cc(NC[C@H]3CNCCO3)c(C(F)(F)F)cn2)cn1 [SRA737]; conditions: max 10 µM
Method in brief: as §1

[10] = compound: Cc1cc2ncnn2cc1Nc1ncc2c(n1)n(C1CCOCC1)c(=O)n2C [AZD7648]; conditions: max 10 µM
Method in brief: as §1

[11] = compound: C1CC(C1)(C(=O)[O-])C(=O)[O-].N.N.[Pt+2] [Carboplatin]; conditions: max 10 µM
Method in brief: as §1

[12] = compound: COc1cccc(OCCCN)c1-c1cc(Nc2cnc(C#N)cn2)n[nH]1 [Prexasertib]; conditions: max 1 µM
Method in brief: as §1

[13] = compound: O=C(Nc1ccc2[nH]nc(-c3ccncc3)c2c1)[C@@H]1CCN(CC(=O)N2CCN(c3ccc(-c4ncccn4)cc3)CC2)C1; conditions: max 5 µM
Method in brief: as §1

[14] = compound: C=CCn1c(=O)c2cnc(Nc3ccc(N4CCN(C)CC4)cc3)nc2n1-c1cccc(C(C)(C)O)n1 [AZD1775]; conditions: max 3 µM
Method in brief: as §1

[15] = compound: CC1(C)CCC(CN2CCN(c3ccc(C(=O)NS(=O)(=O)c4ccc(NCC5CCOCC5)c([N+](=O)[O-])c4)c(Oc4cnc5[nH]ccc5c4)c3)CC2)=C(c2ccc(Cl)cc2)C1 [Venetoclax]; conditions: max 1 µM
Method in brief: as §1

[16] = compound: Cn1cnc2c(F)c(Nc3ccc(Br)cc3Cl)c(C(=O)NOCCO)cc21 [Selumetinib]; conditions: max 10 µM
Method in brief: as §1

[17] = compound: CS(=O)(=O)CCNCc1ccc(-c2ccc3ncnc(Nc4ccc(OCc5cccc(F)c5)c(Cl)c4)c3c2)o1 [Lapatinib]; conditions: max 10 µM
Method in brief: as §1

[18] = compound: CC(=O)c1c(C)c2cnc(Nc3ccc(N4CCNCC4)cn3)nc2n(C2CCCC2)c1=O [Palbociclib]; conditions: max 10 µM
Method in brief: as §1

[19] = compound: Nc1ccn([C@@H]2O[C@H](CO)[C@@H](O)C2(F)F)c(=O)n1 [Gemcitabine]; conditions: max 0.3 µM
Method in brief: as §1

[20] = compound: C[C@@H](Oc1cc(-c2cnn(C3CCNCC3)c2)cnc1N)c1c(Cl)ccc(F)c1Cl [Crizotinib]; conditions: max 10 µM
Method in brief: as §1

[21] = compound: O=c1[nH]cc(F)c(=O)[nH]1 [5-Fluorouracil]; conditions: max 20 µM
Method in brief: as §1

[22] = compound: Cc1c2c(nn1C)CSCc1cc(n(C)n1)CSc1cc(c3ccccc3c1)OCCCc1c(C(=O)O)n(C)c3c-2c(Cl)ccc13 [AZD5991]; conditions: max 1 µM
Method in brief: as §1

[23] = compound: CN(CC[C@H](CSC1=CC=CC=C1)NC2=C(C=C(C=C2)S(=O)(=O)NC(=O)C3=CC=C(C=C3)N4CCC(CC4)[C@H](C5=CC=CC=C5C6=CC=C(C=C6)Cl)O)S(=O)(=O)C(F)(F)F)CCO [AZD4320]; conditions: max 1 µM
Method in brief: as §1

[24] = compound: CC(=O)Nc1cccc(-n2c(=O)n(C3CC3)c(=O)c3c(Nc4ccc(I)cc4F)n(C)c(=O)c(C)c32)c1 [Trametinib]; conditions: max 1 µM
Method in brief: as §1

[25] = compound: C[C@@H](c1ccc2nccn2c1)n1nnc2ncc(-c3cnn(C)c3)nc21 [Savolitinib]; conditions: max 1 µM
Method in brief: as §1

[26] = compound: CCN(CCO)CCCOc1ccc2c(Nc3cc(CC(=O)Nc4cccc(F)c4)[nH]n3)ncnc2c1 [AZD2811]; conditions: max 1 µM
Method in brief: as §1

[27] = compound: C[C@@H]1COCCN1C2=NC(=NC(=C2)C3(CC3)[S@](=N)(=O)C)C4=C5C=CNC5=NC=C4 [AZD6738]; conditions: max 10 µM
Method in brief: as §1

[28] = compound: CC(=O)O[C@H]1C(=O)[C@@]2(C)[C@H]([C@H](OC(=O)c3ccccc3)[C@]3(O)C[C@H](OC(=O)[C@H](O)[C@@H](NC(=O)c4ccccc4)c4ccccc4)C(C)=C1C3(C)C)[C@]1(OC(C)=O)CO[C@@H]1C[C@@H]2O [Paclitaxel]; conditions: max 3 µM
Method in brief: as §1

[29] = compound: COc1cc([C@@H]2c3cc4c(cc3[C@@H](O[C@@H]3O[C@@H]5CO[C@@H](C)O[C@H]5[C@H](O)[C@H]3O)[C@H]3COC(=O)[C@H]23)OCO4)cc(OC)c1O [Etoposide]; conditions: max 10 µM
Method in brief: as §1

[30] = compound: COc1cccc2c1C(=O)c1c(O)c3c(c(O)c1C2=O)C[C@@](O)(C(=O)CO)C[C@@H]3O[C@H]1C[C@H](N)[C@H](O)[C@H](C)O1 [Doxorubicin]; conditions: max 1 µM
Method in brief: as §1

[31] = compound: Cc1nc(-c2cn3c(n2)-c2ccc(-c4cnn(C(C)(C)C(N)=O)c4)cc2OCC3)n(C(C)C)n1 [Taselisib]; conditions: max 10 µM
Method in brief: as §1

[32] = compound: CCc1c2c(nc3ccc(O)cc13)-c1cc3c(c(=O)n1C2)COC(=O)[C@]3(O)CC [SN-38]; conditions: max 0.3 µM
Method in brief: as §1

[33] = compound: C[C@@H](Nc1cc(F)cc(F)c1)c1cc(C(=O)N(C)C)cc2c(=O)cc(N3CCOCC3)oc12 [AZD8186]; conditions: max 10 µM
Method in brief: as §1

[34] = compound: CC1=CN2[C@@H](C1)C=NC3=CC(=C(C=C3C2=O)OC)OCCCCCOC4=C(C=C5C(=C4)N=C[C@@H]6CC(=CN6C5=O)C)OC [SG3199]; conditions: max 0.001 µM
Method in brief: as §1

[35] = compound: COc1cc2ncnc(Nc3ccc(F)c(Cl)c3)c2cc1OCCCN1CCOCC1 [Gefitinib]; conditions: max 10 µM
Method in brief: as §1

Cell Line | IC50, cell viability 72 h [1] [nM] | IC50, cell viability 72 h [2] [nM] | IC50, cell viability 72 h [3] [nM] | IC50, cell viability 72 h [4] [nM] | IC50, cell viability 72 h [5] [nM] | IC50, cell viability 72 h [6] [nM] | IC50, cell viability 72 h [7] [nM] | IC50, cell viability 72 h [8] [nM] | IC50, cell viability 72 h [9] [nM] | IC50, cell viability 72 h [10] [nM] | IC50, cell viability 72 h [11] [nM] | IC50, cell viability 72 h [12] [nM] | IC50, cell viability 72 h [13] [nM] | IC50, cell viability 72 h [14] [nM] | IC50, cell viability 72 h [15] [nM] | IC50, cell viability 72 h [16] [nM] | IC50, cell viability 72 h [17] [nM] | IC50, cell viability 72 h [18] [nM] | IC50, cell viability 72 h [19] [nM] | IC50, cell viability 72 h [20] [nM] | IC50, cell viability 72 h [21] [nM] | IC50, cell viability 72 h [22] [nM] | IC50, cell viability 72 h [23] [nM] | IC50, cell viability 72 h [24] [nM] | IC50, cell viability 72 h [25] [nM] | IC50, cell viability 72 h [26] [nM] | IC50, cell viability 72 h [27] [nM] | IC50, cell viability 72 h [28] [nM] | IC50, cell viability 72 h [29] [nM] | IC50, cell viability 72 h [30] [nM] | IC50, cell viability 72 h [31] [nM] | IC50, cell viability 72 h [32] [nM] | IC50, cell viability 72 h [33] [nM] | IC50, cell viability 72 h [34] [nM] | IC50, cell viability 72 h [35] [nM]
SK-CO-1 (Colorectal Carcinoma) | > 10000 | > 10000 | > 2000 | > 300 | > 1000 | 3130 | > 10000 | > 3000 | > 10000 | > 10000 | > 10000 | 248 | 85.6 | 1240 | > 1000 | 1120 | > 10000 | > 10000 | 9.48 | 1800 | > 20000 | > 1000 | 700 | 5.27 | > 1000 | 383 | 6580 | 4.07 | 2140 | 185 | 1220 | 5.9 | 9810 | > 1 | > 10000
SK-N-SH (Neuroblastoma) | > 10000 | > 10000 | > 2000 | > 300 | > 1000 | 59.3 | > 10000 | > 3000 | > 10000 | > 10000 | > 10000 | 26.5 | > 5000 | 1440 | > 1000 | > 10000 | > 10000 | > 10000 | 58.5 | 2410 | > 20000 | > 1000 | 794 | > 1000 | > 1000 | > 1000 | 2260 | 77.4 | 667 | 66.9 | 1520 | 2.92 | > 10000 | > 1 | > 10000
SKG-IIIa (Cervical Carcinoma) | > 10000 | > 10000 | > 2000 | > 300 | > 1000 | > 10000 | > 10000 | > 3000 | > 10000 | > 10000 | > 10000 | > 1000 | > 5000 | > 3000 | > 1000 | > 10000 | > 10000 | > 10000 | > 300 | > 10000 | > 20000 | > 1000 | > 1000 | > 1000 | > 1000 | > 1000 | > 10000 | 854 | > 10000 | > 1000 | > 10000 | > 300 | > 10000 | > 1 | > 10000
SNU-423 (Hepatocellular Carcinoma) | > 10000 | > 10000 | > 2000 | > 300 | > 1000 | > 10000 | > 10000 | > 3000 | > 10000 | > 10000 | > 10000 | 166 | > 5000 | 2150 | > 1000 | > 10000 | > 10000 | > 10000 | > 300 | > 10000 | > 20000 | > 1000 | > 1000 | > 1000 | > 1000 | > 1000 | > 10000 | 124 | > 10000 | > 1000 | > 10000 | > 300 | > 10000 | > 1 | > 10000
T84 (Colorectal Carcinoma) | > 10000 | > 10000 | > 2000 | > 300 | > 1000 | > 10000 | > 10000 | > 3000 | 4610 | > 10000 | > 10000 | 89.7 | > 5000 | 1310 | > 1000 | > 10000 | > 10000 | > 10000 | 276 | > 10000 | > 20000 | > 1000 | > 1000 | 804 | > 1000 | > 1000 | 6780 | 548 | > 10000 | > 1000 | 4660 | 131 | > 10000 | > 1 | > 10000
ZR-75-30 (Breast Carcinoma) | > 10000 | > 10000 | > 2000 | > 300 | > 1000 | > 10000 | > 10000 | > 3000 | > 10000 | > 10000 | > 10000 | > 1000 | > 5000 | > 3000 | > 1000 | > 10000 | 869 | > 10000 | > 300 | > 10000 | > 20000 | > 1000 | > 1000 | > 1000 | > 1000 | > 1000 | > 10000 | > 3000 | > 10000 | > 1000 | 9520 | > 300 | > 10000 | > 1 | > 10000
